This is an account of results in US20250241890A1, “1,4-DIUREAS AND 1,4-DITHIOUREAS AND USES THEREOF” (Purdue Research Foundation, priority 2024, published 2025).

Molecules are shown by their SMILES. Entries after “also recorded” stand apart in the source; their conditions may differ.

In assay [1] the target is T1, α-synuclein (α-syn) (Homo sapiens, UniProt P37840).
T1 construct: purchased rPeptide (Watkinsville, GA)
The assay is described as follows: Thioflavin T (ThT) fluorescence assay of α-syn fibril formation. It is filed as biochemical. As to conditions: α-syn 2 μM final concentration, compounds at 100 μM, average of three replicates with SEM; read-out: % ThT intensity (100 μM), maximum ThT intensity in percentage. The method, then: Chemical and peptide source. Dimethylsulfoxide (DMSO) and thioflavin-T (ThT) were purchased from Alfa Aesar (Ward Hill, MA). Recombinant α-synuclein (α-syn) was procured from rPeptide (WatKinsville, GA). The recombinant p-tau isoform 1N4R was prepared as published previously (Fortin et al. 2021, Sui et al. 2015, Liu et al. 2020). Concerning the preparation of tau 0N4R, a bacterial expression plasmid consisting of the vector pET30a carrying a cDNA encoding the human Tau 0N4R isoform was a kind gift of Dr. Benjamin Wolozin (Boston University). E. coli stock (Rosetta BL21 E. coli (CamR) containing pET30a [0N4R tau wt] (KanR)) was grown in LB medium supplemented with kanamycin (50 μg/mL) and chloramphenicol (50 μg/mL). Protein over-expression was induced by the addition of 1 mM IPTG for ˜18 hours at 37° C., and cells were pelleted by centrifugation at 6,000 g for 15 minutes at 4° C. The cells were resuspended in lysis buffer (10 mM Hepes, pH 7.4, 50 mM NaCl, 1 mM MgCl2, 1 mM PMSF, 1× PIC, and 0.5 mM DTT) and lysed by sonication at 30 seconds “On” and 1 minute “Off” at ˜30-45% power for ˜3-5 minutes. Lysate was centrifuged at 10,000 rpm for 10 minutes at 4° C., and supernatant was transferred with 7.8 ml (total) of 3M NaCl. The lysate was incubated for 10 minutes in 80° C. water bath, then cooled for 10 minutes in an ice bath. The lysate was centrifuged at 10,000 rpm at 4° C. for 10 minutes, and the supernatant was transferred to a new tube. The supernatant was dialyzed overnight against cation exchange buffer (50 mM MES, […], 1 mM DTT, pH 6.0). The dialysate was loaded onto a HiPrep SP HP column, and proteins were eluted with a linear gradient ranging from 50 mM to 1 M NaCl. General Characterizations. ^1H and ^13C {1H} NMR spectra were recorded using a 500 MHz Bruker instrument working at a frequency of 500 MHz for ^1H and at 126 MHz for ^13C. Chemical shifts are reported in ppm using residual solvent resonances as internal reference (δ 2.50 and δ 39.51 for ^1H and ^13C in DMSO-d6, respectively). ^1H NMR data are reported as follows. b=broad, s=singlet, d=doublet, t=triplet, q=quartet, and m=multiplet. Coupling constants are given in hertz. The purity of all compounds and synthetic intermediates was judged to be 95% or better based on ^1H NMR. IR measurements were performed in a Nicolet FTIR as thin films in the Purdue Drug Discovery facility. High-resolution mass spectrometry analyses were conducted at the MSU Mass Spectrometry facility. Thioflavin fluorescence assays. […] The recombinant α-syn obtained from rPeptide has been validated with proper quality control to confirm the monomeric state of the protein. Kinetics of fibril formation have been performed using ThT as published previously.^6, 12, 13, 24 The fluorescence emission experiments were performed with the excitation and emission wavelengths set at 440 and 485 nm, respectively, with a Synergy HT multi-mode microplate reader (BioTek, Winooski, VT). Samples were measured in three replicates. Experiments were repeated three times using different α-syn stock solutions. For each time point, arbitrary units of fluorescence were calculated from the mean values normalized against the maximum value. The percentage of fluorescence intensity at the plateau phase in Table 1 was expressed as mean #SEM. Concerning the dose response curve depicted in FIG. 2, the data were plotted using GraphPad Prism. Photo-induced Cross-linking of Unmodified Proteins (PICUP) Assay. To induce oligomerization by cross-linking, α-syn (from Rpeptide, LLC) was diluted in 10 mM phosphate buffer (pH 7.4) to reach a final concentration of 50 μM. Different compounds were added to the protein solution at a final concentration of 50 μM, resulting in a molar ratio of 1:1. PICUP assays were performed with the following controls: samples without light exposition, without Ru(bpy) or ammonium persulfate, and without compound (i.e., 0.125% DMSO). […]

Assay [2] addresses T1, α-synuclein (α-syn). The assay is described as follows: PICUP assay of α-syn oligomer formation. Type of assay: biochemical. As to conditions: α-syn 60 μM, compound 50 μM (~molar ratio 1:1). The method, then: Chemical and peptide source. Dimethylsulfoxide (DMSO) and thioflavin-T (ThT) were purchased from Alfa Aesar (Ward Hill, MA). Recombinant α-synuclein (α-syn) was procured from rPeptide (WatKinsville, GA). The recombinant p-tau isoform 1N4R was prepared as published previously (Fortin et al. 2021, Sui et al. 2015, Liu et al. 2020). Concerning the preparation of tau 0N4R, a bacterial expression plasmid consisting of the vector pET30a carrying a cDNA encoding the human Tau 0N4R isoform was a kind gift of Dr. Benjamin Wolozin (Boston University). E. coli stock (Rosetta BL21 E. coli (CamR) containing pET30a [0N4R tau wt] (KanR)) was grown in LB medium supplemented with kanamycin (50 μg/mL) and chloramphenicol (50 μg/mL). Protein over-expression was induced by the addition of 1 mM IPTG for ˜18 hours at 37° C., and cells were pelleted by centrifugation at 6,000 g for 15 minutes at 4° C. The cells were resuspended in lysis buffer (10 mM Hepes, pH 7.4, 50 mM NaCl, 1 mM MgCl2, 1 mM PMSF, 1× PIC, and 0.5 mM DTT) and lysed by sonication at 30 seconds “On” and 1 minute “Off” at ˜30-45% power for ˜3-5 minutes. Lysate was centrifuged at 10,000 rpm for 10 minutes at 4° C., and supernatant was transferred with 7.8 ml (total) of 3M NaCl. The lysate was incubated for 10 minutes in 80° C. water bath, then cooled for 10 minutes in an ice bath. The lysate was centrifuged at 10,000 rpm at 4° C. for 10 minutes, and the supernatant was transferred to a new tube. The supernatant was dialyzed overnight against cation exchange buffer (50 mM MES, […], 1 mM DTT, pH 6.0). The dialysate was loaded onto a HiPrep SP HP column, and proteins were eluted with a linear gradient ranging from 50 mM to 1 M NaCl. General Characterizations. ^1H and ^13C {1H} NMR spectra were recorded using a 500 MHz Bruker instrument working at a frequency of 500 MHz for ^1H and at 126 MHz for ^13C. Chemical shifts are reported in ppm using residual solvent resonances as internal reference (δ 2.50 and δ 39.51 for ^1H and ^13C in DMSO-d6, respectively). ^1H NMR data are reported as follows. b=broad, s=singlet, d=doublet, t=triplet, q=quartet, and m=multiplet. Coupling constants are given in hertz. The purity of all compounds and synthetic intermediates was judged to be 95% or better based on ^1H NMR. IR measurements were performed in a Nicolet FTIR as thin films in the Purdue Drug Discovery facility. High-resolution mass spectrometry analyses were conducted at the MSU Mass Spectrometry facility. Thioflavin fluorescence assays. Thioflavin fluorescence assays were used to monitor fibril formation of commercial recombinant α-syn at a final concentration of 2 μM and treated with control DMSO and different compounds. The recombinant α-syn obtained from rPeptide has been validated with proper quality control to confirm the monomeric state of the protein. Kinetics of fibril formation have been performed using ThT as published previously.^6, 12, 13, 24 The fluorescence emission experiments were performed with the excitation and emission wavelengths set at 440 and 485 nm, respectively, with a Synergy HT multi-mode microplate reader (BioTek, Winooski, VT). Samples were measured in three replicates. Experiments were repeated three times using different α-syn stock solutions. For each time point, arbitrary units of fluorescence were calculated from the mean values normalized against the maximum value. The percentage of fluorescence intensity at the plateau phase in Table 1 was expressed as mean #SEM. Concerning the dose response curve depicted in FIG. 2, the data were plotted using GraphPad Prism. Photo-induced Cross-linking of Unmodified Proteins (PICUP) Assay. […] Different compounds were added to the protein solution at a final concentration of 50 μM, resulting in a molar ratio of 1:1. PICUP assays were performed with the following controls: samples without light exposition, without Ru(bpy) or ammonium persulfate, and without compound (i.e., 0.125% DMSO). […]

On to `S=C(Nc1ccc(NC(=S)Nc2ccc3[nH]ccc3c2)cc1)Nc1ccc2[nH]ccc2c1` [Compound 4, 3-(1H-indol-5-yl)-1-(4-{[(1H-indol-5-yl)carbamothioyl]amino}phenyl)thiourea], for which the remaining activity at 100 µM at α-synuclein (α-syn) [1] came out at 46.2%. Also, the “effect on α-syn oligomer formation (high molecular weight bands) by PICUP” value at α-synuclein (α-syn) [2] is on record as “mediocre; also recorded: reduced slightly”.
Taken in the same sequence, the figures for `O=C(Nc1ccc(NC(=O)Nc2ccc3cc[nH]c3c2)cc1)Nc1ccc2cc[nH]c2c1` [Compound 5, 3-(1H-indol-6-yl)-1-(4-{[(1H-indol-6-yl)carbamoyl]amino}phenyl)urea] were 58.7% and “mediocre; also recorded: reduced slightly”.
Taken in the same sequence, the figures for `O=C(Nc1ccc(NC(=O)Nc2ccc3[nH]ccc3c2)cc1)Nc1ccc2[nH]ccc2c1` [Compound 3, 3-(1H-indol-5-yl)-1-(4-{[(1H-indol-5-yl)carbamoyl]amino}phenyl)urea] were 57% and “mediocre; also recorded: reduced slightly”.
The corresponding values for `S=C(Nc1ccc(NC(=S)Nc2ccc3cc[nH]c3c2)cc1)Nc1ccc2cc[nH]c2c1` [Compound 6, 3-(1H-indol-6-yl)-1-(4-{[(1H-indol-6-yl)carbamothioyl]amino}phenyl)thiourea] are 36.1% and “mediocre; also recorded: reduced slightly”.
